According to US20040254221A1, “Novel Nitrogenous Compound and use thereof” (priority 2001, published 2004):

Assays:
receptors CXCR4 = molecular target: T1, receptors CXCR4 (Homo sapiens, UniProt P61073); test: Inhibition of 125I-SDF-1 binding to CXCR4 on MT4 cells; conditions: 125I-SDF-1 ligand, 2 hours under ice-cooling, read-out: Inhibition rate (binding-inhibition %)
T1 construct: endogenous in cells; host or cells: MT4 cells
Experimental: MT4 cells (5×10^6/0.2 ml/well) were cultured on a 24-well microtiter plate. After the cells were incubated for 24 hours at 37° C. in a carbon dioxide gas incubator, a culture medium was replaced with a buffer solution (0.1% BSA-containing RPMI-1640). Together with a ligand (^125I-SDF-1″, specific activity: 2,200 Ci/mmol; manufactured by Daiichi Chemicals Co., Ltd. (Tokyo)), test materials of various concentrations were subjected to a binding reaction for 2 hours under ice-cooling.

[1] = tested on: HIV-1IIIB infected MT-4 cells; test: Antiviral activity in HIV-1IIIB infected MT-4 cells (MTT method); assay type: cell-based; conditions: Human immunodeficiency virus 1, MT4, 120 h, MOI 0.01, MT-4 cells, 5 days, read-out: EC50 (concentration required for inhibition of cell disorder due to HIV infection by 50%)
Experimental: Immediately after infection, HIV-1IIIB infected MT-4 cells (3.0×10^4/well, MOI (Multiplicity of infection): 0.01) were added to a 96-well microtiter plate together with the test compounds having different concentrations. The cells were cultured in a carbon dioxide incubator at 37° C. for 5 days, and the number of living cells was measured in accordance with the MTT (tetrazolium) method ([…] et al., J. of Virol. Method, 20, 309-321 (1988)). The antiviral activity is represented the concentration required for inhibition of cell disorder due to HIV infection by 50% (EC50: 50% Effective Concentration), and expressed using μM, and the results are shown in Table 2.

ICR mice (male) = conditions: mouse, in vivo, 4 days
Experimental: The acute toxicity of the aforementioned compound was examined. Specifically, 7-week-old ICR mice (male) were divided into several groups (4 or 5 mice in each group), and the mice were bred for 1 week for habituation. Subsequently, each of the compounds of Examples was dissolved in distilled water or physiological saline, and the solution was administered to the mice via tail vein (dose: 15 mg/kg) twice a day for 4 days. On the fifth day, dead mice were counted.

T1 sequence (P61073 whole entry): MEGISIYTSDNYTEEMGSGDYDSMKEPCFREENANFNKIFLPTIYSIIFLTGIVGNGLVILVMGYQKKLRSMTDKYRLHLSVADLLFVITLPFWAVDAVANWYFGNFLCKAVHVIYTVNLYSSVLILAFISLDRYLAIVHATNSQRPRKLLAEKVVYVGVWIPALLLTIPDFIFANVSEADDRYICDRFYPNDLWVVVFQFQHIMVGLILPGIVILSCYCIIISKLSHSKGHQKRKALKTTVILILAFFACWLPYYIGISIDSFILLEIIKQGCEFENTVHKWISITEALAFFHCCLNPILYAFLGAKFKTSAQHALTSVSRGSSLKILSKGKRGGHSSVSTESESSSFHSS

## C[C@H](NC(=O)[C@H](CCCNC1CCCCC1)NC(=O)c1ccc(CNCc2ncc[nH]2)cc1)c1cccc2ccccc12 [Compound No. 27, N-[(S)-1-(1-naphthyl)ethyl]-5-cyclohexylamino-2-(S)-[4-[N-(imidazol-2-ylmethyl)aminomethyl]benzoyl]aminopentanoylamide]
Receptors CXCR4
  inhibition at 0.1 µM: 97%

## Cc1ccccc1CNCCC[C@H](NC(=O)c1ccc(CNCc2ncc[nH]2)cc1)C(=O)N[C@@H](C)c1cccc2ccccc12 [Compound No. 1, N-[(S)-1-(1-naphthyl)ethyl]-5-(2-methylbenzyl)amino-2-(S)-[4-[N-(imidazol-2-ylmethyl)aminomethyl]benzoyl]aminopentanoylamide]
Receptors CXCR4
  inhibition at 0.1 µM: 100%
[1]
  EC50: 58 nM

## C[C@H](NC(=O)[C@H](CCCSC(=N)N)NC(=O)c1ccc(CNCc2ccccn2)cc1)c1cccc2ccccc12 [Compound No. 73, N-[(S)-1-(1-naphthyl)ethyl]-5-sulfinamidino-2-(S)-[4-[N-(pyridin-2-ylmethyl)aminomethyl]benzoyl]aminopentanoylamide]
Receptors CXCR4
  inhibition at 0.1 µM: 93.5%
[1]
  EC50: 69.1 nM
ICR mice (male)
  Dead mice/test mice: 0/5

## CCCN(CCC)CCC[C@H](NC(=O)c1ccc(CNCc2ncc[nH]2)cc1)C(=O)N[C@@H](C)c1cccc2ccccc12 [Compound No. 34, N-[(S)-1-(1-naphthyl)ethyl]-5-di-n-propylamino-2-(S)-[4-[N-(imidazol-2-ylmethyl)aminomethyl]benzoyl]aminopentanoylamide]
Receptors CXCR4
  inhibition at 0.1 µM: 98%
[1]
  EC50: 15 nM
ICR mice (male)
  Dead mice/test mice: 0/5

## CCCN(CCC[C@H](NC(=O)c1ccc(CNCc2ncc[nH]2)cc1)C(=O)N[C@@H](C)c1cccc2ccccc12)CC(C)C [Compound No. 39, N-[(S)-1-(1-naphthyl)ethyl]-5-(N-n-propyl-isobutylamino)-2-(S)-[4-[N-(imidazol-2-ylmethyl)aminomethyl]benzoyl]aminopentanoylamide]
[1]
  EC50: 14.5 nM
ICR mice (male)
  Dead mice/test mice: 0/5

## C[C@H](NC(=O)[C@H](CCCN(C)C1CCCCC1)NC(=O)c1ccc(CNCc2ncc[nH]2)cc1)c1cccc2ccccc12 [Compound No. 42, N-[(S)-1-(1-naphthyl)ethyl]-5-(N-methyl-cyclohexylamino)-2-(S)-[4-[N-(imidazol-2-ylmethyl)aminomethyl]benzoyl]aminopentanoylamide]
[1]
  EC50: 14.5 nM
ICR mice (male)
  Dead mice/test mice: 0/5

## C[C@H](NC(=O)[C@H](CCCNC1CCCc2ccccc21)NC(=O)c1ccc(CNCc2ncc[nH]2)cc1)c1cccc2ccccc12 (stereo partly drawn) [Compound No. 28, N-[(S)-1-(1-naphthyl)ethyl]-5-(1,2,3,4-tetrahydronaphthalen-1-yl)amino-2-(S)-[4-[N-(imidazol-2-ylmethyl)aminomethyl]benzoyl]aminopentanoylamide]
Receptors CXCR4
  inhibition at 0.1 µM: 100%

## C/N=C(\N)SCCC[C@H](NC(=O)c1ccc(CNCc2ccccn2)cc1)C(=O)N[C@@H](C)c1cccc2ccccc12 [Compound No. 74, N-[(S)-1-(1-naphthyl)ethyl]-5-(N-methylsulfinamidino)-2-(S)-[4-[N-(pyridin-2-ylmethyl)aminomethyl]benzoyl]aminopentanoylamide]
[1]
  EC50: 46.1 nM
ICR mice (male)
  Dead mice/test mice: 0/5

## CC(C)CN(CCO)CCC[C@H](NC(=O)c1ccc(CNCc2ncc[nH]2)cc1)C(=O)N[C@@H](C)c1cccc2ccccc12 [Compound No. 66, N-[(S)-1-(1-naphthyl)ethyl]-5-(N-isobutyl-(2-hydroxyethyl)amino)-2-(S)-[4-[N-(imidazol-2-ylmethyl)aminomethyl]benzoyl]aminopentanoylamide]
Receptors CXCR4
  inhibition at 0.1 µM: 90.6%
[1]
  EC50: 20 nM
ICR mice (male)
  Dead mice/test mice: 0/5

## CCc1ccccc1CNCCC[C@H](NC(=O)c1ccc(CNCc2ncc[nH]2)cc1)C(=O)N[C@@H](C)c1cccc2ccccc12 [Compound No. 22, N-[(S)-1-(1-naphthyl)ethyl]-5-(2-ethylbenzyl)amino-2-(S)-[4-[N-(imidazol-2-ylmethyl)aminomethyl]benzoyl]aminopentanoylamide]
[1]
  EC50: 30 nM

## C[C@H](NC(=O)[C@H](CCCN1CCCCCC1)NC(=O)c1ccc(CNCc2ncc[nH]2)cc1)c1cccc2ccccc12 [Compound No. 55, N-[(S)-1-(1-naphthyl)ethyl]-5-(hexamethyleneimin-1-yl)-2-(S)-[4-[N-(imidazol-2-ylmethyl)aminomethyl]benzoyl]aminopentanoylamide]
Receptors CXCR4
  inhibition at 0.1 µM: 89.3%
[1]
  EC50: 29 nM
ICR mice (male)
  Dead mice/test mice: 0/5

## COc1ccccc1CNCCC[C@H](NC(=O)c1ccc(CNCc2ncc[nH]2)cc1)C(=O)N[C@@H](C)c1cccc2ccccc12 [Compound No. 2, N-[(S)-1-(1-naphthyl)ethyl]-5-(2-methoxybenzyl)amino-2-(S)-[4-[N-(imidazol-2-ylmethyl)aminomethyl]benzoyl]aminopentanoylamide]
Receptors CXCR4
  inhibition at 0.1 µM: 97.6%
[1]
  EC50: 99.6 nM

## Cc1cccnc1CNCCC[C@H](NC(=O)c1ccc(CNCc2ncc[nH]2)cc1)C(=O)N[C@@H](C)c1cccc2ccccc12 [Compound No. 9, N-[(S)-1-(1-naphthyl)ethyl]-5-(3-methylpyridin-2-yl)methylamino-2-(S)-[4-[N-(imidazol-2-ylmethyl)aminomethyl]benzoyl]aminopentanoylamide]
[1]
  EC50: 55.3 nM
ICR mice (male)
  Dead mice/test mice: 0/5

## CC(C)CN(CCC[C@H](NC(=O)c1ccc(CNCc2ncc[nH]2)cc1)C(=O)N[C@@H](C)c1cccc2ccccc12)CC(C)C [Compound No. 33, N-[(S)-1-(1-naphthyl)ethyl]-5-diisobutylamino-2-(S)-[4-[N-(imidazol-2-ylmethyl)aminomethyl]benzoyl]aminopentanoylamide]
Receptors CXCR4
  inhibition at 0.1 µM: 100%
[1]
  EC50: 6.7 nM
ICR mice (male)
  Dead mice/test mice: 0/5

## C[C@H](NC(=O)[C@H](CCCNC1CCc2ccccc21)NC(=O)c1ccc(CNCc2ncc[nH]2)cc1)c1cccc2ccccc12 (stereo partly drawn) [Compound No. 29, N-[(S)-1-(1-naphthyl)ethyl]-5-(indan-1-yl)amino-2-(S)-[4-[N-(imidazol-2-ylmethyl)aminomethyl]benzoyl]aminopentanoylamide]
Receptors CXCR4
  inhibition at 0.1 µM: 100%
ICR mice (male)
  Dead mice/test mice: 0/5
